Among the data in ChEMBL document CHEMBL1144330, “Novel pyrazinone mono-amides as potent and reversible caspase-3 inhibitors” (Bioorg Med Chem Lett, 2005) are IC50 values, retold here.

As usually defined, the IC50 is the midpoint of a concentration-inhibition curve.

In one assay the target is T1, Caspase-1 (Homo sapiens, UniProt P29466).
T1 sequence (P29466 whole entry): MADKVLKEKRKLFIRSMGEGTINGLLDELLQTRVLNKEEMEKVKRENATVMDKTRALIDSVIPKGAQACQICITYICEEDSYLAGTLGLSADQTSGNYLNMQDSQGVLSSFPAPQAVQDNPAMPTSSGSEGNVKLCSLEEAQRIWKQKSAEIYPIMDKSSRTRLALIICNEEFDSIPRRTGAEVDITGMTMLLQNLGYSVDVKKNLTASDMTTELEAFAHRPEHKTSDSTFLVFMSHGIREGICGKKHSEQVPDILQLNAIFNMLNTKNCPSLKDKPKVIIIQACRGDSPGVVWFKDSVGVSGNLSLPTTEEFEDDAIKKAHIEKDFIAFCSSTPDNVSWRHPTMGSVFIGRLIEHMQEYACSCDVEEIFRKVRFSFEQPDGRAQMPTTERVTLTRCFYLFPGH
Kind of assay: Inhibitory concentration against recombinant human caspase-1 in neuronal precursor (NT2) cells.

The next assay has as its target T2, Caspase-3 (Homo sapiens, UniProt P42574).
T2 sequence (P42574 whole entry): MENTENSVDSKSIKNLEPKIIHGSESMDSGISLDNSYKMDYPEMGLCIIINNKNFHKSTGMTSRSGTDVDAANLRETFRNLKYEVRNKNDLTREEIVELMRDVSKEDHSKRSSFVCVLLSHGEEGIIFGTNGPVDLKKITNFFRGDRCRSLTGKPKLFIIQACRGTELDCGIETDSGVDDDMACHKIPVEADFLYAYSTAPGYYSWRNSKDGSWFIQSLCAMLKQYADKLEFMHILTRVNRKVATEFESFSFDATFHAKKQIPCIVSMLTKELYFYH
Kind of assay: Inhibitory concentration against recombinant human caspase-3 in neuronal precursor (NT2) cells.

A further assay concerns the target T3, Caspase-7 (Homo sapiens, UniProt P55210).
T3 sequence (P55210 whole entry): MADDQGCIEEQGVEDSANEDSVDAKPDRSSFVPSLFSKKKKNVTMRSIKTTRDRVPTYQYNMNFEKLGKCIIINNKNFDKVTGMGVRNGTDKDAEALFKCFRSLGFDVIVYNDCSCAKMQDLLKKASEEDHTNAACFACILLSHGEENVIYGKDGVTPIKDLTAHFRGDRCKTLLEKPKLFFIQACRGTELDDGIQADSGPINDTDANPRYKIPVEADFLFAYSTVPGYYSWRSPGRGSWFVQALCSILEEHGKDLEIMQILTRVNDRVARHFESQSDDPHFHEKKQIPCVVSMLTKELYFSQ
Description: Inhibitory concentration against recombinant human caspase-7 […].

The target of another assay is Caspase-8 (Homo sapiens, UniProt Q14790). Kind of assay: Inhibitory concentration against recombinant human caspase-8 […].
Chain of Caspase-8 (Q14790 217-374 limits assumed): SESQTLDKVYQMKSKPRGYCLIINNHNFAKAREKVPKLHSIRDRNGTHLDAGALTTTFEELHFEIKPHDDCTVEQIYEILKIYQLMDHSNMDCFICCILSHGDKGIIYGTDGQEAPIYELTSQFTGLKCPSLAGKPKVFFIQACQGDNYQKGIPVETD
Chain of Caspase-8 (Q14790 385-479 limits assumed): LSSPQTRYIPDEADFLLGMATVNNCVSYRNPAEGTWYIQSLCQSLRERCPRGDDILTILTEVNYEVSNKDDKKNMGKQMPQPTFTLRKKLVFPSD
Another assay deals with NT2. Description: Inhibitory concentration against camptothecin induced apoptosis in neuronal precursor (NT2) whole cells. It is filed as functional, cell-based. Particulars: Homo sapiens.

For `CCC(C(=O)N[C@@H](CC(=O)O)C(=O)CSCc1ccccc1)n1ccnc(NCc2noc(C)n2)c1=O` (stereo not given in full), the IC50 is 1.08 µM on Caspase-1; 0.072 µM at Caspase-3; greater than 10 µM at Caspase-7; 7.56 µM at Caspase-8; 8.06 µM in the assay on NT2.

As for `CCCCCCCCN(C)CNCC(=O)[C@H](CC(=O)O)NC(=O)C(CC)n1ccnc(NCc2nonc2C)c1=O` (stereo not given in full), the IC50 on Caspase-1 is 0.025 µM; at Caspase-3, 0.009 µM; at Caspase-7 it was 0.1 µM; on Caspase-8, greater than 10 µM; with NT2 it was 0.15 µM.

For the molecule `CCC(C(=O)N[C@@H](CC(=O)O)C(=O)CSCc1ccccc1)n1ccnc(NCc2cncs2)c1=O` (stereo not given in full), the IC50 at Caspase-1 worked out at 0.19 µM; at Caspase-3, 0.012 µM; at Caspase-7, 0.49 µM; at Caspase-8 it was 6.59 µM; in the assay on NT2, 3.42 µM.

Turning to `CCC(C(=O)N[C@@H](CC(=O)O)C(=O)CSCc1ccccc1)n1ccnc(NCc2cc(C)no2)c1=O` (stereo not given in full), the IC50 is 0.23 µM on Caspase-1; 0.051 µM on Caspase-3; 2.54 µM at Caspase-7; 3.3 µM at Caspase-8; 6.41 µM with NT2.

As for `CCC(C(=O)N[C@@H](CC(=O)O)C(=O)CSCc1ccccc1)n1ccnc(NCc2nccs2)c1=O` (stereo not given in full), the IC50 on Caspase-1 was 0.13 µM; on Caspase-3, 0.026 µM; at Caspase-7, 1.13 µM; on Caspase-8 it was 1.75 µM; with NT2 it was 3.08 µM.

For `CCC(C(=O)N[C@@H](CC(=O)O)C(=O)CSCc1ccccc1)n1ccnc(Nc2ccc3sc(C)nc3c2)c1=O` (stereo not given in full), the IC50 at Caspase-1 came out at 0.22 µM; at Caspase-3 it was 0.088 µM; at Caspase-7, 2.42 µM; at Caspase-8, 2.73 µM; with NT2, 37.9 µM.

As for `CCC(C(=O)N[C@@H](CC(=O)O)C(=O)CSCc1ccccc1)n1ccnc(NCCn2cncn2)c1=O` (stereo not given in full), the IC50 on Caspase-1 was 1.93 µM; at Caspase-3, 0.018 µM; at Caspase-7 it was 9.71 µM; at Caspase-8 it was greater than 10 µM; in the assay with NT2 it was 5.74 µM.

For `CCC(C(=O)N[C@@H](CC(=O)O)C(=O)CSCc1ccccc1)n1ccnc(NCCCN2CCCC2=O)c1=O` (stereo not given in full), the IC50 on Caspase-1 is 1.9 µM; at Caspase-3 it was 0.19 µM; on Caspase-7 it was greater than 10 µM; at Caspase-8, 9.92 µM; in the assay with NT2, 50 µM.

Take `CCC(C(=O)N[C@@H](CC(=O)O)C(=O)CSCc1ccccc1)n1ccnc(NCc2nnc(-c3ccccc3)o2)c1=O` (stereo not given in full): the IC50 on Caspase-1 is 0.98 µM; at Caspase-3, 0.31 µM; at Caspase-7, greater than 10 µM; at Caspase-8, 4.92 µM; in the assay on NT2, 52.1 µM.

As to `CCC(C(=O)N[C@@H](CC(=O)O)C(=O)CSCc1ccccc1)n1ccnc(NCCOC)c1=O` (stereo not given in full), the IC50 at Caspase-1 was 1.11 µM; at Caspase-3, 0.14 µM; at Caspase-7, greater than 10 µM; at Caspase-8 it was greater than 10 µM; with NT2 it was 6.79 µM.

Consider `CCC(C(=O)N[C@@H](CC(=O)O)C(=O)CSCc1ccccc1)n1ccnc(NCCCOC)c1=O` (stereo not given in full), for which the IC50 is 0.92 µM at Caspase-1; 0.071 µM on Caspase-3; 9.73 µM on Caspase-7; 7.65 µM at Caspase-8; greater than 10 µM in the assay with NT2.

As to `CCC(C(=O)N[C@@H](CC(=O)O)C(=O)CSCc1ccccc1)n1ccnc(NCCn2nc(C)cc2C)c1=O` (stereo not given in full), the IC50 on Caspase-1 is 1.82 µM; at Caspase-3 it was 0.16 µM; on Caspase-7 it was greater than 10 µM; on Caspase-8, 1.66 µM; in the assay with NT2, 9.48 µM.

Take `CCC(C(=O)N[C@H](C=O)CC(=O)O)n1ccnc(NCc2nonc2C)c1=O` (stereo not given in full): the IC50 at Caspase-1 came to 0.15 µM; on Caspase-3 it was 0.078 µM; on Caspase-7 it was 1 µM; on Caspase-8, 0.99 µM; in the assay with NT2, 3.56 µM.

Regarding `CCC(C(=O)N[C@@H](CC(=O)O)C(=O)CSCc1ccccc1)n1ccnc(NCc2nc(C)no2)c1=O` (stereo not given in full), the IC50 on Caspase-1 is 0.67 µM; on Caspase-3 it was 0.048 µM; on Caspase-7 it was 4.68 µM; at Caspase-8 it was 6.42 µM; with NT2, 5.33 µM.

`CCC(C(=O)N[C@@H](CC(=O)O)C(=O)CSCc1ccccc1)n1ccnc(NCc2cccs2)c1=O` (stereo not given in full): the IC50 at Caspase-1 was 0.065 µM; at Caspase-3, 0.036 µM; on Caspase-7, 0.81 µM; at Caspase-8, 2.09 µM; in the assay on NT2, 4.56 µM.

In the case of `CCC(C(=O)N[C@@H](CC(=O)O)C(=O)CSCc1ccccc1)n1ccnc(NCc2ccon2)c1=O` (stereo not given in full), the IC50 at Caspase-1 was determined as 0.4 µM; at Caspase-3, 0.046 µM; on Caspase-7, 5.17 µM; at Caspase-8, 2.9 µM; with NT2, 8.56 µM.

With `CCC(C(=O)N[C@@H](CC(=O)O)C(=O)CSCc1ccccc1)n1ccnc(NCC2COc3ccccc3O2)c1=O` (stereo not given in full), the IC50 amounted to 0.087 µM at Caspase-1; 0.14 µM on Caspase-3; 3.28 µM on Caspase-7; 8.22 µM on Caspase-8; 30 µM in the assay with NT2.

Take `CCCCCCN(C)CNCC(=O)[C@H](CC(=O)O)NC(=O)C(CC)n1cc(CC)nc(NCc2nonc2C)c1=O` (stereo not given in full): the IC50 is 0.025 µM on Caspase-1; 0.006 µM at Caspase-3; 0.6 µM at Caspase-7; 9.54 µM on Caspase-8; 0.078 µM in the assay on NT2.

On to `CCC(C(=O)N[C@@H](CC(=O)O)C(=O)CSCc1ccccc1)n1ccnc(NCc2nonc2C)c1=O` (stereo not given in full), for which the IC50 at Caspase-1 is 0.22 µM; at Caspase-3, 0.0079 µM; at Caspase-7 it was 0.73 µM; on Caspase-8, 2.46 µM; in the assay with NT2 it was 1.39 µM.

Turning to `CCC(C(=O)N[C@@H](CC(=O)O)C(=O)CSCc1ccccc1)n1ccnc(NCCn2cccn2)c1=O` (stereo not given in full), the IC50 is 0.99 µM at Caspase-1; 0.082 µM on Caspase-3; greater than 10 µM at Caspase-7; 2.26 µM on Caspase-8; 7.09 µM with NT2.
